{"source": "patent US8791067B2", "about": "“Method for treating malaria” (Morehouse School of Medicine, priority 2012, dated 2014)", "type_in_all_cases": "cell-based", "key": {"[1]": {"test_system": "CXCL10", "experiment": "CXCL10 expression and promoter activity in mouse brain endothelial cell line CRL2581", "settings": "CRL2581 cells", "source_text": "(§1) FIGS. 6D and 6E show protein expression of CXCL10 relative to actin in untreated control cells (D, E) and in cells treated with siSTAT3 (D), HEME (D, E), siSTAT3+HEME (D), AG490 (E) or AG490+HEME (E).\n(§2) High level of free HEME produced during malaria infection causes inflammation that damages host vascular endothelium and is a major contributor to pathogenesis of severe malaria. To determine how HEME stimulates HO-1, CXCL10 and STAT3 signaling pathways in vitro, mouse brain endothelial cell line CRL2581 was treated with HEME and the effects of HEME on expression of HO-1, CXCL10 and STAT3 activation was assessed. […] When pSTAT3 was reduced by short interfering STAT3 (siSTAT3) (FIG. 6B) or pharmacological inhibitor of Jak, AG490 (FIG. 6C), HO-1 protein expression was inhibited correspondingly."}, "[2]": {"test_system": "Human brain microvascular endothelial cells (HBVEC)", "experiment": "HEME-induced cell death of HBVEC by MTT assay", "settings": "HEME+AG490 (50 μmol/l) for 24 h, FIG. 7", "procedure": "Human brain microvascular endothelial cells (HBVEC) were treated with HEME or with HEME plus AG490 and monitored for cell death progression by MTT assay.\nCell death progression in HBVEC cultured after treatment with HEME or HEME+AG490 (50 μmol/l) for 24 h as assayed by MTT assay (*P<0.05, n=3 triplicate experiments). The curves correspond to 3 experiments run in parallel. In all the samples, the same concentration of vehicle (DMSO, 0.1%) was used."}, "[3]": {"test_system": "HO-1", "experiment": "HO-1 expression in mouse brain endothelial cell line CRL2581", "settings": "CRL2581 cells; for expression of HO-1 mRNA and protein: data not shown", "source_text": "as §1, §2"}, "[4]": {"test_system": "STAT3", "experiment": "STAT3 activation (pSTAT3) in HEME-treated mouse brain endothelial cell line CRL2581", "settings": "CRL2581 cells; for pSTAT3 level: FIG. 6B, 6C, 6G", "source_text": "as §1, §2"}, "[5]": {"test_system": "JAK/STAT3 signaling pathway", "experiment": "Human JAK/STAT signaling pathway real time RT^2 Profile PCR arrays in HBVEC", "settings": "HBVEC treated with 20 μM HEME vs vehicle; FIG. 8", "procedure": "Target genes of JAK/STAT3 signaling pathway upon HEME treatment was further assessed using real time RT^2 Profile PCR arrays (Qiagen, PAHS-039A). The results shown in FIG. 7 are expressed as the fold changes in expression obtained by comparing HBVEC treated with 20 μM HEME or with vehicle as control. […] The up regulated genes include STAT-induced gene matrix metallopeptidase 3 (MMP3), apoptosis-related gene CCAAT/enhancer binding protein (C/EBPb), Fc fragment of IgG, high affinity Ia, receptor (FCGR1A), Jun B proto-oncogene (JUNB), nuclear factor of kappa light polypeptide gene enhancer in B-cells 1 (NFκB), suppressor of cytokine signaling (SOCS3), SOCS4 and signal transducer and activator of transcription 4 (STAT4)."}}, "data": [{"smiles": "N#C/C(=C\\c1ccc(O)c(O)c1)C(=O)NCc1ccccc1", "note": "[AG490, tyrphostin AG490]", "values": [{"measurement": "expression of CXCL10", "setting": "[1]; protein relative to actin, FIG. 6D, 6E", "result": "reduced expression"}, {"measurement": "HEME-induced apoptosis / cell death in HBVEC", "setting": "[2]", "result": "can rescue the HEME-induced apoptosis"}, {"measurement": "HO-1 protein expression", "setting": "[3]; HEME-induced, pSTAT3 reduced, FIG. 6B, 6C", "result": "inhibited"}, {"measurement": "pSTAT3 level", "setting": "[4]", "result": "reduced"}]}, {"smiles": "C=CC1=C(C)c2cc3[n-]c(cc4nc(cc5[n-]c(cc1n2)c(C)c5CCC(=O)[O-])C(CCC(=O)[O-])=C4C)c(C)c3C=C.[Co+2].[H+].[H+]", "note": "[CoPP, cobalt protoporphyrin]", "values": [{"measurement": "expression of HO-1 mRNA and protein", "setting": "[3]", "result": "significantly up regulated"}, {"measurement": "pSTAT3 level", "setting": "[4]", "result": "increased"}]}, {"smiles": "C=CC1=C(C)c2cc3[n-]c(cc4[n-]c(cc5nc(cc1n2)C(C)=C5C=C)c(C)c4CCC(=O)O)c(CCC(=O)O)c3C.[Fe+2]", "note": "[HEME]", "values": [{"measurement": "expression of CXCL10 mRNA", "setting": "[1]", "result": "significantly up regulated"}, {"measurement": "CXCL10 promoter activity", "setting": "[1]; data not shown", "result": "enhances CXCL10 promoter activity in a dose-dependent manner"}, {"measurement": "fold-change of down regulated genes (F2R, OAS1)", "setting": "[5]", "result": "greater than 2 fold"}, {"measurement": "fold-change of up regulated genes (MMP3, C/EBPb, FCGR1A, JUNB, NFκB, SOCS3, SOCS4, STAT4)", "setting": "[5]", "result": "greater than 2 fold"}, {"measurement": "expression of HO-1 mRNA and protein", "setting": "[3]", "result": "significantly up regulated"}, {"measurement": "HEME concentration at which pSTAT3 peaked", "setting": "[4]; FIG. 6A", "result": 5, "unit": "μM"}, {"measurement": "HEME concentration from which pSTAT3 was increased", "setting": "[4]; FIG. 6A", "result": 1, "unit": "μM"}]}, {"smiles": "C=CC1=C(C)c2cc3[n-]c(cc4[n-]c(cc5nc(cc1n2)C(C)=C5C=C)c(C)c4CCC(=O)O)c(CCC(=O)O)c3C.[Zn+2]", "note": "[ZnPP]", "values": [{"measurement": "expression of HO-1 mRNA and protein", "setting": "[3]", "result": "down regulated"}, {"measurement": "pSTAT3 level", "setting": "[4]", "result": "decreased"}]}]}
